Values joined by “and” are separate entries in the source; they are usually repeats but may differ in a detail not shown here. Equal entries are not always repeated.
Assays:
[1] = test system: primary AML, ALL and CLL specimens; assay: Free thiol analysis by mBBr labeling, leukemia specimens; assay type: cell-based, human; conditions: 20 μM TDZD-8, as early as 30 minutes after exposure
Experimental: (§1) C. […] Intracellular thiol levels were assessed by flow cytometry after labeling with 50 μM monobromobimane (molecular probes).

[2] = test system: cell lines derived from hematologic malignancies; assay: NCI-60 screen, average; assay type: cell-based; conditions: Homo sapiens; average over hematologic lines of NCI-60; read-out: average concentration to achieve 50% growth inhibition (GI50)
Excerpt: In contrast the cell viability for normal specimens was 79.5% (n=13).

[3] = test system: phospho-FLT3 in CD34+ AML cells; assay: Phospho-FLT3 flow cytometry, CD34+ population of primary AML; assay type: cell-based, human; conditions: 30 minutes after addition of drug
[4] = test system: primary blast crisis CML (bcCML) specimens; assay: Viability of primary bcCML specimens, Annexin V/7-AAD; assay type: cell-based; conditions: Homo sapiens, 24 h; read-out: mean viability relative to untreated controls
[5] = test system: normal specimens (BM or CB); assay: Membrane integrity by YoPro-1 uptake, normal specimens; assay type: cell-based, human; conditions: 20 μM TDZD-8 for 15 min
Experimental: C. […] Cells were then washed with PBS and stained to assess membrane permeability using annexin V-Allophycocyanin (APC) and the vital dyes: Yo-[…] (0.1 uM), Hoescht 33342 (2.5 ug/ml), and Propidium Iodide (0.5 ug/ml) (Molecular Probes).

FLT3 = FLT3 (Homo sapiens, UniProt P36888); assay: Kinase assay (single point and titration); assay type: biochemical
FLT3, sequence (P36888 27-993): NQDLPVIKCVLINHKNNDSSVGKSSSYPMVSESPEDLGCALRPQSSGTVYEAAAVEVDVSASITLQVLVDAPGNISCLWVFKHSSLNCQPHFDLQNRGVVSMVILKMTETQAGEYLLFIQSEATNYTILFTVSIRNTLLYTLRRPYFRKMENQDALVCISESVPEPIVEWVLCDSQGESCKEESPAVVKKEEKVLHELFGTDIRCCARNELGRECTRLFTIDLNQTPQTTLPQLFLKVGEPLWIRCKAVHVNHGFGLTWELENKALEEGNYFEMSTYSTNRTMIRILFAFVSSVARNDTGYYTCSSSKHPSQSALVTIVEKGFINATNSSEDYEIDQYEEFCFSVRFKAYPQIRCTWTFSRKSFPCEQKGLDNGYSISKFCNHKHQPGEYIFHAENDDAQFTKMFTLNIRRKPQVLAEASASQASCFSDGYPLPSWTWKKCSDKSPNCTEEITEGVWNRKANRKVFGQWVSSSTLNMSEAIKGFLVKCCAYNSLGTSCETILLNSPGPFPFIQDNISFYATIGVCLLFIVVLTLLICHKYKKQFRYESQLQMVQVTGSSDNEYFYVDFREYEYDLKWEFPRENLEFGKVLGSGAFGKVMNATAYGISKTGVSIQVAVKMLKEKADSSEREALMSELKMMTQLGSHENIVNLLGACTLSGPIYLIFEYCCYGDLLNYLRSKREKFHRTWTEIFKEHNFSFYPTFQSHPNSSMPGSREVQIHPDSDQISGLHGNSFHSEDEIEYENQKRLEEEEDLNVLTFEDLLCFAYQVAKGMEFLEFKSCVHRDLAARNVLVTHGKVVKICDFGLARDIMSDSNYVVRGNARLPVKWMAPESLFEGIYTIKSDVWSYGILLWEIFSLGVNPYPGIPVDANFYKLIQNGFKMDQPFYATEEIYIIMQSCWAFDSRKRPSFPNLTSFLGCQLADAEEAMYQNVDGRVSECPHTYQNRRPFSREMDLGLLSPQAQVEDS
Experimental: (§2) Kinase Assays: Single point and titration assays are performed using protocols (or essentially using protocols) know in the art for kinase activity profiling against a battery of kinase targets, including, for example, those specifically delineated herein. Such assays include, for example, those available from commercial sources, contract research laboratories, and the like.

PRKCI (PKC iota) = PRKCI (PKC iota) (Homo sapiens, UniProt P41743); assay: Kinase assay (single point and titration); assay type: biochemical
PRKCI (PKC iota), sequence (P41743 whole entry): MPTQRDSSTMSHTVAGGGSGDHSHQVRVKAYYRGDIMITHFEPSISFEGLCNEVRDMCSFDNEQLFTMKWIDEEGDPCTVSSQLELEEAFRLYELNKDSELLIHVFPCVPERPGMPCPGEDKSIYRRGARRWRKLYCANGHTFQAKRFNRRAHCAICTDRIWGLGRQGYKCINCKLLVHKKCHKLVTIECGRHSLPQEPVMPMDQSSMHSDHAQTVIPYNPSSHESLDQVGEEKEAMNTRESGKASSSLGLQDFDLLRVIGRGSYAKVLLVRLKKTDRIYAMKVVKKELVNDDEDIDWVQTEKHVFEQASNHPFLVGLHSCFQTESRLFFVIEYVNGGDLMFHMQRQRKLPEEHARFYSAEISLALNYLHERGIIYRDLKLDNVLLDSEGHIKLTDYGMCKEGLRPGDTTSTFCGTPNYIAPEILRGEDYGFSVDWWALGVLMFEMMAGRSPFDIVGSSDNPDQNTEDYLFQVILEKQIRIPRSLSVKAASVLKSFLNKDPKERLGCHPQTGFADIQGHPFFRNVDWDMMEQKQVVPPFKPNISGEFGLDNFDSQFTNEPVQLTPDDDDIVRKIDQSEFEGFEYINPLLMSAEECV
Experimental: as §2

PRKCB1 (PKC beta I) = PRKCB1 (PKC beta I) (Homo sapiens, UniProt P05771); assay: Kinase assay (single point and titration); assay type: biochemical
PRKCB1 (PKC beta I), sequence (P05771 whole entry): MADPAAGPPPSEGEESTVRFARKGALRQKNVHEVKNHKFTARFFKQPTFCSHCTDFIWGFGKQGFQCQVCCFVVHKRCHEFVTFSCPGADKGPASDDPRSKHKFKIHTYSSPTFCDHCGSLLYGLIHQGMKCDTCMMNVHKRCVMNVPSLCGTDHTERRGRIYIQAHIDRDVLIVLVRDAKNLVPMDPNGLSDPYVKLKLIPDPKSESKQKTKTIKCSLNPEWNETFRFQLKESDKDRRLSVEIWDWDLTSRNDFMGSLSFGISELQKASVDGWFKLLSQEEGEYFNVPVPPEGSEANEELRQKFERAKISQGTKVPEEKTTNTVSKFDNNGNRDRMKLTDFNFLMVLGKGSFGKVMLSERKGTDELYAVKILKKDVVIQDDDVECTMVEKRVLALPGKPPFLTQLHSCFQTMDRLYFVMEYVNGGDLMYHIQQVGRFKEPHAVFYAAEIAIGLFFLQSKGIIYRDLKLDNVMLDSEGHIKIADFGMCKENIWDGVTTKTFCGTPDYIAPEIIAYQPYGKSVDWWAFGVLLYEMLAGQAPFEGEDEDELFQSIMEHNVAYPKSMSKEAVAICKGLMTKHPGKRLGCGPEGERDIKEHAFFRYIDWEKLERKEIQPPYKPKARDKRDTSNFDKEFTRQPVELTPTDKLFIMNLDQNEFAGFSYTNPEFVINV
Experimental: as §2

PRKCD (PKC delta) = PRKCD (PKC delta) (Homo sapiens, UniProt Q05655); assay: Kinase assay (single point and titration); assay type: biochemical
PRKCD (PKC delta), sequence (Q05655 whole entry): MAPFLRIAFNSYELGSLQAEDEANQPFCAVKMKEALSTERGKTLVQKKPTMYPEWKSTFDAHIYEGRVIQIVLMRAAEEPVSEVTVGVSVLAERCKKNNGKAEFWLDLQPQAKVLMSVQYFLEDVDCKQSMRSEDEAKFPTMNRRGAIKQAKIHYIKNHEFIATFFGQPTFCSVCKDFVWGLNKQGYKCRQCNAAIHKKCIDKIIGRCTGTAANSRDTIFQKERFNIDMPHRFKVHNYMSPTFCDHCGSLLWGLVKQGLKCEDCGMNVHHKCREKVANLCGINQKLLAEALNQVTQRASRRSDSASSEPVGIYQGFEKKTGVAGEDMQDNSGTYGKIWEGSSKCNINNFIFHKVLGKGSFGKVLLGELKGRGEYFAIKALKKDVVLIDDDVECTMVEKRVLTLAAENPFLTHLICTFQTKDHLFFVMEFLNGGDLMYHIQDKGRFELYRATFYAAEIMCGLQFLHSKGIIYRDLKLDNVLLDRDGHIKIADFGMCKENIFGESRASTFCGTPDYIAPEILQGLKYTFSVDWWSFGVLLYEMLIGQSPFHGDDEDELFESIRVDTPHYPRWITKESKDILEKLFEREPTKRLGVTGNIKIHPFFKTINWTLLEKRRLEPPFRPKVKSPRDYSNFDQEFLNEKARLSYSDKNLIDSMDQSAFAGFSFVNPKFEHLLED
Experimental: as §2

AML progenitor cells = assay: Methylcellulose colony assay, AML; assay type: cell-based, human; conditions: 20 μM TDZD-8, 18 hours before plating, n=11
Experimental: Cells were then plated at 50,000 cells/ml in Methocult™ GF H4534 (1% methylcellulose in IMDM, 30% FBS, 1% BSA, 10^−4M 2-mercaptoethanol, 2 mM L-glutamine, 50 ng/ml rh stem cell factor, 10 ng/ml rh GM-CSF, 10 ng/ml rh IL-3-Stem Cell Technologies, Vancouver, B.C.) supplemented with 3 units/ml of erythropoietin and 50 ng/ml G-CSF (R&D Systems, Minneapolis, Minn.). Colonies were scored after 10-14 days of culture.

[6] = test system: normal specimens (BM, CB, MPB); assay: Viability of normal specimens (BM, CB, MPB), Annexin V/7-AAD; assay type: cell-based, human; conditions: normal specimens
Experimental: (§3) The cells were isolated and processed as described. […] All drug treatments were performed in triplicate. […] Total viable cell numbers were determined using a flow cytometric apoptosis assay as described. Briefly, after 18 h of treatment, specimens were labeled with anti-CD34-PE (Becton Dickinson, San Jose, Calif.) for 20 minutes. […] The total number of events collected was 100,000. The percent viable cells was defined as AnnexinV^neg/7-AAD^neg cells on total (ungated) cells and on gates set for CD34^+ populations. • [1] Jordan, C. T., et al., The interleukin-3 receptor alpha chain is a unique marker for human acute myelogenous leukemia stem cells. Leukemia, 2000. 14(10): p. […] Lansdorp, P. M. and W. Dragowska, Long-term erythropoiesis from constant numbers of CD34+ cells in serum-free cultures initiated with highly purified progenitor cells from human bone marrow. […] Guzman, M. L., et al., Nuclear factor-kappaB is constitutively activated in primitive human acute myelogenous leukemia cells. […] 98(8): p.

[7] = as above; assay type: cell-based, human; conditions: human; read-out: cell viability relative to untreated controls
Experimental: as §3

PKC = conditions: reported; cited from earlier work
CK-II = CK-II (Homo sapiens, UniProt P68400); conditions: reported; cited from earlier work
CK-II, sequence (P68400 whole entry): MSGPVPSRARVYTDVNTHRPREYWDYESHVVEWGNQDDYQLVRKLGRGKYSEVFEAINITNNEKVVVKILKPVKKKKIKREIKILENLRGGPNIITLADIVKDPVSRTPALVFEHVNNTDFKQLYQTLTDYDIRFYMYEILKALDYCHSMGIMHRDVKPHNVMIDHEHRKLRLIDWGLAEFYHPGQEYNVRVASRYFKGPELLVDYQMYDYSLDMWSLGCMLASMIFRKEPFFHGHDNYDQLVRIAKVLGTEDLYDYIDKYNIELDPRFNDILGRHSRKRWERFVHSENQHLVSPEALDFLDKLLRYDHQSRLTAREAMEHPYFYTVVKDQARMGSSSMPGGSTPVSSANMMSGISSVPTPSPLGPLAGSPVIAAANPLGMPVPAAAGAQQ

primary AML specimens = assay: Viability of primary AML specimens, Annexin V/7-AAD flow cytometry; assay type: cell-based, human
Experimental: as §3

CD34+CD10− ALL cells = assay: Viability of CD34+CD10− cells from ALL specimens; assay type: cell-based; conditions: Homo sapiens, 24 h
[8] = test system: plasma membrane localized PKCα and β in primary CD34+ AML and ALL cells; assay: Immunoblot of membrane fractions for PKCα and PKCβ; assay type: cell-based, human; conditions: TDZD-8 for 1 hour
Experimental: Immunoblots. Cells were prepared and analyzed as previously described.^35 Membrane fractions were prepared using mem-PER eukaryotic membrane protein extraction kit as per manufacturer's instructions (Pierce; Rockford, Ill.). Blots were probed with phospho-PKC (pan) (beta II; Ser660), phospho-PKCalpha/betaII (Thr638/641), total PKCα, PKCβ and FLT3 (Santa Cruz Biotechnology, Calif.), Caspase-3 (Cell Signaling technologies; Danvers, Mass.); caspase-8 and PARP (BD bioscience), cleaved PARP (abcam) or anti-actin (AC-15; Sigma) antibodies.

[9] = test system: normal CB cells (hematopoietic stem cells); assay: NOD/SCID xenotransplant engraftment of normal CB cells treated in culture; assay type: in vivo, human; conditions: cells cultured 18 hours with 20 μM TDZD-8; n=3; NOD/SCID mice
Experimental: NOD/SCID (NOD.CB17-prdkdc scid/J) mice (Jackson Laboratories, Bar Harbor, Me.) were sub-lethally irradiated with 270 rad using a RadSource™ X-ray irradiator the day before transplantation. Cells to be assayed (AML or normal umbilical cord blood—CB) were injected via tail vein (5-10 million cells) in a final volume of 0.2 ml of PBS with 0.5% FBS. After 6-8 weeks, animals were sacrificed and BM was isolated.

primary ALL specimens = assay: Viability of primary ALL specimens, Annexin V/7-AAD; assay type: cell-based; conditions: Homo sapiens, 24 h; read-out: mean viability relative to untreated controls
normal specimens = assay: Free thiol analysis by mBBr labeling, normal specimens; assay type: cell-based, human; conditions: 20 μM TDZD-8
Experimental: as §1

[10] = titration, read-out: in vitro IC50

## Cn1sc(=O)n(Cc2ccccc2)c1=O [TDZD-8, 4-benzyl-2-methyl-1,2,4-thiadiazolidine-3,5-dione]
[1]
  mBBr labeling (free thiol groups): reduction in mBBr labeling is evident
[2]
  GI50: 8.3 µM
[3]
  inhibition of FLT3 phosphorylation: ~30% and 31%
[4]
  viability at 20 µM: 21.6%
[5]
  rapid uptake of YoPro-1: not evident in normal specimens
FLT3
  inhibition at 20 µM: 99%
FLT3; titration curve, FIG. 13C, read-out: in vitro IC50
  IC50: 673 nM
PRKCI (PKC iota)
  inhibition at 20 µM: 100%
PRKCI (PKC iota); [10]
  IC50: 5.5 µM
PRKCB1 (PKC beta I)
  inhibition at 20 µM: 98%
PRKCB1 (PKC beta I); [10]
  IC50: 1400 nM
PRKCD (PKC delta)
  inhibition at 20 µM: 102%
PRKCD (PKC delta); [10]
  IC50: 1100 nM
AML progenitor cells
  CFU, normalized to untreated controls: 7.3%
[6]
  Cytotoxic Normal: No
[7]
  viability at 24 h, 20 μM: 79.5%
PKC
  IC50: > 100 µM
CK-II
  IC50: > 100 µM
Primary AML specimens; Homo sapiens, 24 h, read-out: mean viability relative to untreated controls
  viability at 20 µM: 15%
Primary AML specimens; additional preliminary data, not shown
  treatment time that may also be effective: ≤ 5 min
Primary AML specimens; bulk leukemia blast populations, 17 primary specimens
  mean time to achieve ≧50% cell death: 2 h
Primary AML specimens; cell death kinetics
  Rapid kinetics: Yes
Primary AML specimens; leukemia cells
  time within which most toxicity is evident: 1 to 6 h
Primary AML specimens; primary AML specimens
  Cytotoxic AML: Yes
Primary AML specimens; primary AML, bcCML, ALL and CLL specimens
  time of TDZD-8 exposure at which cell death was frequently evident: ≤ 2 h
Primary AML specimens; three of 17 specimens, within 30 minutes
  viability: below 30%
CD34+CD10− ALL cells
  viability at 20 µM: 22.3%
[8]
  plasma membrane localized PKCα and β: decreases
[9]
  effect on the engraftment of normal specimens: little to no effect
Primary ALL specimens
  viability at 20 µM: 12.4%
Normal specimens
  mBBr staining (free thiol groups): only slight changes in mBBr staining

Source: US9180118B2, “Thiadiazolidinone derivatives” (University of Rochester, priority 2006, dated 2015)
